Results from US12642805B2, “Use of oxygenated cholesterol sulfates for treating at least one of insulin resistance, diabetes, and prediabetes” (Medicis Pharmaceutical Corporation, priority 2020, dated 2026).

Legend:
Assay type in all cases: in vivo, rat
[1] = quantitative whole body autoradiography tissue distribution, oral, Sprague Dawley rats; settings: 75 mg/kg oral
Excerpt: No [1^4C]-25HC3S-derived radioactivity was detected in the eye (lens).

[2] = excretion mass balance after single intravenous dose; settings: rats, 10 mg/kg intravenous, over 168 hours
Description: (§1) Nine male Sprague Dawley rats (Group 1) were designated for the pharmacokinetic phase, 3 male Sprague Dawley rats (Group 2) for the excretion mass balance phase, and 7 male Sprague Dawley rats (Group 3) and 9 male Long Evans rats (Group 4) for the tissue distribution phase. All animals received a single intravenous dose of [1^4C]-25HC3S at 10 mg/kg and a target radioactivity of 225 μCi/kg. Blood samples were collected from all Group 1 animals at approximately 0.083, 0.25, 0.5, 1, 2, 4, 8, 12, 24, 48, and 72 hours post-dose. Urine and feces were collected from all Group 2 animals periodically through 168 hours post-dose. […] Following blood collection, animals were euthanized by CO2 inhalation and carcasses frozen in a dry ice/hexane bath for processing by quantitative whole body autoradiography. Whole blood, plasma, urine, feces, cage rinse, and cage wash were analyzed for total radioactivity by liquid scintillation counting.

[3] = quantitative whole body autoradiography tissue distribution, intravenous, Long Evans rats; settings: 10 mg/kg intravenous
Description: as §1

[4] = plasma pharmacokinetics of radioactivity after single intravenous dose; settings: rats, 10 mg/kg single intravenous bolus
Description: as §1

[5] = quantitative whole body autoradiography tissue distribution, intravenous, Sprague Dawley rats; settings: 10 mg/kg intravenous
Description: as §1

[6] = plasma pharmacokinetics of radioactivity after single oral (gavage) dose; settings: rats, 75 mg/kg single oral (gavage)
Description: The terminal elimination phase T1/2 was 27.3 hours.

SMILES: C[C@H](CCCC(C)(C)O)[C@H]1CC[C@H]2[C@@H]3CC=C4[14CH2][C@@H](OS(=O)(=O)O)CC[C@]4(C)[C@H]3CC[C@]12C [[4-^14C]-25HC3S]
- Skin, thymus, prostate, and pituitary tissue concentrations [1]: < 3000 ng equiv./g
- Uveal tract and brain concentrations [1]: approximately 1000 ng equiv./g
- tissue Tmax [1]: ≤ 6 h
- tissue:plasma ratio (AUClast), adrenal gland [1]: 6.64
- tissue:plasma ratio (AUClast), liver [1]: 6.96
- tissue:plasma ratio (AUClast), small intestine (wall) [1]: 15.4
- tissues in which radioactivity was detected [1]: all tissues except the eye (lens)
- recovered radioactivity in feces [2]: 83.0%
- time by which plasma and whole blood concentrations were below quantitation limit ([3]; Long Evans (pigmented) rats): ≤ 336 h
- binding to pigmented or non-pigmented skin or the uveal tract ([3]; Long Evans rats): no difference in binding to pigmented or non-pigmented skin or the uveal tract
- time by which concentrations in skin and uveal tract tissues were below quantitation limit ([3]; Long Evans rats): ≤ 168 h
- mean plasma C0 (radioactivity) [4]: 25,900 ng-equiv./g
- T1/2 in plasma (QWBA phase) [5]: 44.3 h
- T1/2 in whole blood (QWBA phase) [5]: 52.2 h
- maximum plasma concentration (QWBA phase) [5]: 12,400 ng-equiv./g
- plasma:whole blood AUClast ratio [5]: 0.79
- tissue:plasma ratio (AUClast), liver [5]: 11.4
- tissue:plasma ratio (AUClast), small intestine (wall) [5]: 7.44
- tissues in which radioactivity was detected [5]: all tissues except the eye (lens)
- terminal elimination phase T1/2, plasma [6]: 27.3 h
